Assay [1] addresses T1, PA ATP synthase expressed in E. coli DK8/pASH20 (Pseudomonas aeruginosa, UniProt Q9HT15).
T1 construct: expressed in transfected cells; host or cells: E. coli K-12 DK8 (lacks its own ATP synthase) transformed with pASH20 (pBR322 derivative)
The assay can be described thus: NADH-driven ATP synthesis inhibition, DK8/pASH20 membrane vesicles. It is filed as biochemical. The procedure: (§1) P. aeruginosa (ATCC 9027) was streaked onto a 10% TSB agar plate and incubated at room temperature for 72 h. A single colony was resuspended in 100 μL of H2O, and 5 μL was used as the DNA template for PCR with Q5 polymerase (NEB) and […] each of forward and reverse primers. Primers were complementary to regions flanking the atp operon and included sequences for HindIII and NdeI restriction sites (see the SI for primer sequences). The resulting 6.9 kbp DNA fragment was digested with HindIII and NdeI and ligated into digested vector pBR322 (New England Biolabs). The resultant pASH20(-i) plasmid contains a partial atpI gene. To complete the atpI gene, the HindII-XhoI fragment of pASH20(-i) was replaced with a synthetic fragment with a complete atpI (Twist Bioscience) to yield pASH20. The sequence of the entire operon was verified by Sanger DNA sequencing through the ligation sites. Subunit c mutations were introduced by exchanging the XhoI-BamHI fragment containing atpE with a synthetic fragment containing mutated atpE (Twist Bioscience).
(§2) Vesicles were prepared from P. aeruginosa and transformed E. coli cells as previously described.[22] Briefly, cells were grown in LB liquid medium at 37 °C with shaking and harvested by centrifugation after 7 h of growth. Cultures of transformant E. coli included 100 μg/mL ampicillin. Cells were disrupted in TMG buffer (50 mM Tris-HCl, MgCl2, 10% (v/v) glycerol, pH 7.5) using an Avestin B15 homogenizer at 19,000 psi. After unbroken cells and debris were cleared by centrifugation at 9000g, inverted vesicles were collected by centrifugation at 193,000g, resuspended in TMG buffer, and stored at −80 °C. Protein concentrations were determined using a modified Lowry assay.[25]
(§3) Continuous ATP synthesis activity of inverted membrane vesicles was measured using a luciferin/luciferase luminescence assay as previously described.[22] Inhibition of ATP synthesis activity by test compounds was determined using an end point assay essentially as previously described.[18],[26] In this assay, the synthesis reaction was initiated by 2.5 mM NADH, proceeded for 10 min, and was stopped with 1% trichloroacetic acid, 2 mM CCCP, and 10 mM EDTA. Samples from each reaction were diluted 500-fold prior to the addition of luciferase since quinoline compounds are known to inhibit luciferase.[27] This dilution was sufficient to minimize inhibition of luciferase (Figure S4). Each replicate set included a positive control containing DMSO with no compound and a negative control containing carbonyl cyanide m-chlorophenyl hydrazone. Luminescence values were corrected for the background by subtracting the negative control and then normalized to the positive control within the same replicate. Dose–response curves were fit using eq 1, where activity is the relative ATP synthesis activity, [I] is the concentration of inhibitor in μg/mL, and n is the Hill coefficient. [drawing 1] 1

Assay [2] deals with P. aeruginosa efflux knockout GKCW120 (PΔ6). The arrangement: method as in PMID 35990476. The following applies: cited from earlier work.
The next assay relates to E. coli (ATCC 25922). The arrangement: method as in PMID 35990476. The following applies: cited from earlier work.
In assay [3] the target is T2, PA ATP synthase (Pseudomonas aeruginosa, UniProt Q9HT15).
T2 construct: Inverted membrane vesicles were prepared from PA 9027; endogenous in cells; host or cells: Pseudomonas aeruginosa ATCC 9027, inverted membrane vesicles
The assay can be described thus: NADH-driven ATP synthesis inhibition, PA inverted membrane vesicles. It is filed as biochemical. The following applies: inhibition of ATP synthesis activity. The procedure: as §2, §3

The target of assay [4] is T3, PA ATP synthase cIle65Ala mutant (Pseudomonas aeruginosa, UniProt Q9HT15, I65A).
T3 construct: expressed in transfected cells; host or cells: E. coli K-12 DK8 transformed with pASH20 carrying mutated atpE
The assay can be described thus: NADH-driven ATP synthesis inhibition, DK8/pASH20 cI65A membrane vesicles. It is filed as biochemical. The procedure:
as §1, §2, §3

Assay [5] has as its target T2, PA ATP synthase. The arrangement: method as in PMID 35990476. The following applies: PA membrane vesicles; cited from earlier work.
In assay [6] the test system is EC electron transport chain. The assay can be described thus: Electron transport activity (NADH-driven H+ pumping, ACMA quenching), E. coli DK8/pASH20 vesicles. It is filed as biochemical, Escherichia coli. The method, then: Determination of electron transport activity. In an opaque black 96-well plate, inverted membrane
vesicles from PA or E. coli DK8 pASH20 were added to HMK buffer containing 0.3 µg/mL 9-amino-6-chloro-
2-methoxyacridine (ACMA) and 0-64 µg/mL test compound in DMSO. After measurement of baseline
ACMA fluorescence for 60 s, redox-driven H+ pumping was initiated by addition of NADH to 0.8 mM, and
fluorescence quenching was monitored for 120 s before addition of nigericin to 0.5 µg/mL. Relative
activity is reported as the minimum fluorescence value normalized to the maximum fluorescence value
following addition of nigericin. […]

Assay [7] addresses T4, PA ATP synthase cIle65Phe mutant (Pseudomonas aeruginosa, UniProt Q9HT15, I65F).
T4 construct: expressed in transfected cells; host or cells: E. coli K-12 DK8 transformed with pASH20 carrying mutated atpE
The assay can be described thus: NADH-driven ATP synthesis inhibition, DK8/pASH20 cI65F membrane vesicles. It is filed as biochemical. The method, then: as §1, §2, §3

Assay [8] has as its system PA electron transport chain. The arrangement: method as in PMID 35990476. The following applies: PA vesicles; cited from earlier work.
The subject of assay [9] is P. aeruginosa (ATCC 9027). Details: method as in PMID 35990476. The following applies: cited from earlier work.
Assay [10] deals with drug-resistant P. aeruginosa BAA 2108. The assay can be described thus: Antimicrobial susceptibility (broth microdilution), BAA 2108. The following applies: Pseudomonas aeruginosa, BAA2108, read-out: antibacterial activity (MIC) BAA 2108. It is filed as cell-based, Pseudomonas aeruginosa. The procedure:
(§4) The following are general steps, unless otherwise noted. All steps were completed using aseptic techniques. All media and glassware were sterilized via an autoclave at 121 °C for 60 min. All agitation occurred at 160 rpm in a temperature-controlled console shaker (Excella E25) at 37 °C. Full-strength tryptic soy broth (TSB) was made by dissolving 30 g of BD Bacto TSB powder in 1 L of deionized water. Purchased and acquired bacterial strains used were E. coli (ATCC 25922), P. aeruginosa (ATCC 9027), drug-resistant P. aeruginosa from ATCC Panel MP-23 (BAA 2108, BAA 2109, BAA 2110), and P. aeruginosa efflux knockout GKCW120 (PΔ6)[6] provided by Zgurskaya and co-workers at the University of Oklahoma.
(§5) Susceptibility testing was performed in biological triplicate using the broth microdilution method as outlined by the Clinical and Laboratory Standards Institute. […] Briefly, to each well, 1 μL of compound in DMSO, 89 μL of TSB, and 10 μL of bacterial inoculum, grown from a single colony in 10 mL of TSB for 4–6 h, were added. After incubation for 12–15 h at 37 °C, absorbance at 590 nm was read on a Biotek Synergy HTX Multimode plate reader. Data were processed by background subtracting the media absorbance and then normalizing the data to full bacterial growth with the vehicle only. MIC is defined as the lowest concentration of antibiotic or antibiotic/adjuvant combination that achieves ≥85% growth inhibition, which corresponds to no visible growth.
(In general: Broth dilution looks for growth in wells or tubes with falling amounts of substance.)

In assay [11] the test system is drug-resistant P. aeruginosa BAA 2110. The assay can be described thus: Antimicrobial susceptibility (broth microdilution), BAA 2110. In kind it is cell-based, Pseudomonas aeruginosa. The following applies: Pseudomonas aeruginosa, BAA2110, read-out: antibacterial activity (MIC) BAA 2110. The procedure: as §4, §5
The test system of assay [12] is P. aeruginosa (ATCC 9027). The assay can be described thus: Antimicrobial susceptibility (broth microdilution), PA 9027. The following applies: Pseudomonas aeruginosa, ATCC9027; n = 3; >85% reduction in growth at OD 590 nm; read-out: antibacterial activity (MIC) PA 9027. It is filed as cell-based, Pseudomonas aeruginosa. The method, then:
as §4, §5
(§6) Initial antibacterial activity screen of compounds 4, 5, and S1-S6
(§7) Compounds 4, 5, and S1-S6 were screened for initial antibiotic activity against a susceptible laboratory strain of EC (designated EC 25922), and non-virulent, biofilm forming strain of PA (designated PA 9027), and PD6 (efflux knockout strain6) at 128 µg/mL in DMSO. Sterilization and Antimicrobial Susceptibility Assay procedures utilized were the same as described in the methods.
(§8) Table S1. Antibacterial activity screening results for compounds 4, 5, and S1-S6 at 128 µg/mL
(§9) Table S1. Antibacterial activity screening results for compounds 4, 5, and S1-S6 at 128 µg/mL.

Assay [13] deals with P. aeruginosa efflux knockout GKCW120 (PΔ6). The assay can be described thus: Antimicrobial susceptibility (broth microdilution), PΔ6 efflux knockout. In kind it is cell-based, Pseudomonas aeruginosa. The following applies: n = 3; >85% reduction in growth at OD 590 nm. The method, then:
as §4, §5, §6, §7, §8, §9

The subject of assay [14] is drug-resistant P. aeruginosa BAA 2109. The assay can be described thus: Antimicrobial susceptibility (broth microdilution), BAA 2109. In kind it is cell-based, Pseudomonas aeruginosa. The following applies: Pseudomonas aeruginosa, BAA2109, read-out: antibacterial activity (MIC) BAA 2109. The method, then: as §4, §5
Where [15] appears, read: inhibition of ATP synthesis activity.

“And” between values parts separate entries of the source, which are not always exact repeats. Equal values may be shown once. Read-outs that look alike come from different tables or passages of the source.

We go through two molecules from PMC10714390, “Quinoline Compounds Targeting the c-Ring of ATP Synthase Inhibit Drug-Resistant Pseudomonas aeruginosa” (ACS Infectious Diseases, 2023).

By IC50 is commonly meant the midpoint of a concentration-inhibition curve. Low readings indicate greater potency in that assay, high ones weaker potency in that assay. As a reminder, the MIC is the least concentration at which growth counts as inhibited.

As to `COC(=O)[C@H](Cc1ccc(O)cc1)NCc1cc2ccccc2nc1SC` [Compound 1, reference compound], the concentration for half-maximal inhibition (IC50) in [1] (ATP synthesis IC50, DK8/pASH20 vesicles, wild-type PA ATP synthase in E. coli DK8, NADH-driven, end point luminescence assay) was 27.7 µM and 28.8 µM; in assay [4] (ATP synthesis IC50, DK8/pASH20 cI65A vesicles, cI65A mutant, NADH-driven, luminescence assay), 18 µM; in assay [7], 22 µM. Besides, the “Hill coefficient of dose response fit, DK8/pASH20 vesicles” value in [1] (setting [15]) was found to be 1.3. In addition, the “antibacterial activity (MIC) PΔ6” value in [2] was >256 µg/mL. The “antibacterial activity (MIC) EC 25922” value with E. coli (ATCC 25922) was >128 µg/mL. Moreover, the “Hill coefficient of dose response fit, PA vesicles” value at PA ATP synthase [3] is listed as 1.4. Also, the “Hill coefficient of dose response fit, DK8/pASH20 cI65A vesicles” value in assay [4] (setting [15]) was determined as 1.1. The “PA ATP synthesis IC50” value on PA ATP synthase [5] was 10.0 µg/mL. For the same molecule, in assay [6] (0-64 µg/mL, Figure S2), the “inhibition of EC ETC-driven H+ pumping, in words” value was “did not inhibit the electron transport chain strongly”. Moreover, the “Inhibition of the EC electron transport chain IC50” value in assay [6] (EC (DK8/pASH20) vesicles) was >64 µg/mL. Moreover, in [7] (setting [15]), the “Hill coefficient of dose response fit, DK8/pASH20 cI65F vesicles” value amounted to 1.4. Also, the “Inhibition of the PA electron transport chain IC50” value in assay [8] is >64[18] μg/mL. In assay [9], the “antibacterial activity (MIC) PA 9027” value is >256 µg/mL.

Turning to `CNC(C)C1CCC(N)C(OC2C(N)CC(N)C(OC3OCC(C)(O)C(NC)C3O)C2O)O1` (stereo not shown) [gentamicin, reference compound], the minimum inhibitory concentration (MIC) in assay [10] was 16 µg/mL; in assay [11], 4 to 8 µg/mL; in assay [12], 2 to 4 µg/mL; in assay [14] it was 2 µg/mL. Further, in assay [13], the “antibacterial activity (MIC) PΔ6” value was >4 µg/mL.
